Test system: MCF7 cells
Assay: Drug response assay (CellTiter-Glo)
Format: cell-based, human
Conditions: Cas9-expressing vs parental MCF7 cells; 0 μM-100 μM, 72 h
Experimental: To further test the functional implications of Cas9-induced p53 activation, compared the response of parental and Cas9-expressing MCF7 cells to the MDM2-inhibitor nutlin-3 was compared. […] Without being bound by theory, these findings conclude that Cas9-induced p53 activation can affect both genetic and chemical perturbation assays.
MCF7 cells were seeded at a density of 9,000 cells per well in a 96-well plate. The next day, media was washed and fresh media containing nutlin-3 (Sigma-Aldrich) was added to the corresponding wells in a concentration range of 0 μM-100 μM. After 72 h of incubation, levels of ATP were measured as a surrogate marker for cell viability using the CellTiter-Glo assay (Promega). Luminescence measurements were acquired in a SpectraMax reader (ATC) using an integration time of 500 ms.

COc1ccc(C2=N[C@@H](c3ccc(Cl)cc3)[C@@H](c3ccc(Cl)cc3)N2C(=O)N2CCNC(=O)C2)c(OC(C)C)c1 [nutlin-3]
drug sensitivity: modest, but significant, increase

From US12297426B2, “DNA damage response signature guided rational design of CRISPR-based systems and therapies” (THE BROAD INSTITUTE, INC., priority 2019, dated 2025)
